Experimental data reported in patent publication US10000471B2, “Pyrazole P38 map kinase inhibitors” (Respivert Limited, priority 2010, dated 2018).

Experiments:
[1] = target: T1, p38 MAPKα isoform (MAPK14) (Homo sapiens, UniProt Q16539); assay: Enzyme inhibition assay (FRET, Z-LYTE), p38 MAPKα via MAPKAP-K2 activation; type: biochemical; conditions: read-out: Enzyme Inhibition IC50 p38α
T1 construct: purchased Invitrogen
Method in brief: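 Recombinant p38 MAPKα was preincubated with compound for 2 h at RT. Its activity was measured indirectly through activation/phosphorylation of downstream MAPKAP-K2, with a Z-LYTE FRET peptide read-out (coumarin/fluorescein ratio) after a 1 h development step. IC50 came from concentration-response curves of percent inhibition versus an uninhibited control.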

p38 MAPKγ (MAPK12) = target: T2, p38 MAPKγ (MAPK12) (Homo sapiens, UniProt P53778); assay: Enzyme inhibition assay (FRET, Z-LYTE), p38 MAPKγ; type: biochemical; conditions: read-out: Enzyme Inhibition IC50 p38γ
T2 construct: purchased Invitrogen
T2 sequence (P53778 1-367): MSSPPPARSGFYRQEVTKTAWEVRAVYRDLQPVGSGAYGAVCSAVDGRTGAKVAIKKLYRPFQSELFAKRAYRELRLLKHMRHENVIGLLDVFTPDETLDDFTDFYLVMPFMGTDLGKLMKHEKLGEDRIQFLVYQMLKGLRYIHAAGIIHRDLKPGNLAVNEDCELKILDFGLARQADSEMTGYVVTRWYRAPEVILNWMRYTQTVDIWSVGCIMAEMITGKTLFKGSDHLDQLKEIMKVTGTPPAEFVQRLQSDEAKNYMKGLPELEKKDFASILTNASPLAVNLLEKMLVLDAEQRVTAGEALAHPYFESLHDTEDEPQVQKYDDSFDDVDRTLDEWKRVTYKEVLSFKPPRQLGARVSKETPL
Method in brief: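 Recombinant phosphorylated p38 MAPKγ preincubated 2 h at RT with compound in HEPES buffer, then 2 μM FRET peptide and 100 μM ATP added for 1 h; protease development 1 h. Coumarin/fluorescein emission ratio gave phosphorylation; IC50 from concentration-response versus uninhibited control.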

Balb/c mice = assay: LPS-induced neutrophil accumulation in mice; type: in vivo; conditions: for Neutrophil numbers in BAL / Neutrophil numbers in BAL (% inhibition): intra tracheal
Procedure: LPS-Induced Neutrophil Accumulation in Mice
Non-fasted Balb/c mice were dosed by the intra tracheal route with either vehicle, or the test substance at the indicated times (within the range 2-8 hr) before stimulation of the inflammatory response by application of an LPS challenge. At T=0, mice were placed into an exposure chamber and exposed to LPS. After a further 8 hr the animals were anesthetized, their tracheas cannulated and BALF extracted by infusing and then withdrawing from their lungs 1.0 mL of PBS via the tracheal catheter. Total and differential white cell counts in the BALF samples were measured using a Neubaur haemocytometer. Cytospin smears of the BALF samples were prepared by centrifugation at 200 rpm for 5 min at RT and stained using a DiffQuik stain system (Dade Behring). Cells were counted using oil immersion microscopy.

[2] = Table 6, 0.2 mg/mL, 8 h pre-dose

T1 sequence (Q16539 whole entry, canonical isoform): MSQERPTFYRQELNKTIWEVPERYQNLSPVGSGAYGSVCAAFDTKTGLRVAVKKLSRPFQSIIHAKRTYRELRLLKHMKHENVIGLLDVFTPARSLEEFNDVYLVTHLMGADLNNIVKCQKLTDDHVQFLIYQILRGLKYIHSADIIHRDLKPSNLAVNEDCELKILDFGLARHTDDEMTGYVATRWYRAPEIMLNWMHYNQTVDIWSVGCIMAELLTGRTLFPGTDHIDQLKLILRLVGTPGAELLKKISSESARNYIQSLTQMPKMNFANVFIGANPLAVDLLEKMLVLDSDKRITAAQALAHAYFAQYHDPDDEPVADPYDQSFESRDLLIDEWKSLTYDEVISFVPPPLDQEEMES

IC50 [1] [nM] | IC50 (p38 MAPKγ (MAPK12)) [nM] | SMILES | Neutrophil numbers in BAL (Balb/c mice; 0.05 mg/mL, 2 hr pre-dose) | Neutrophil numbers in BAL (% inhibition) (Balb/c mice; 0.05 mg/mL, 2 hr pre-dose) [%] | Neutrophil numbers in BAL (Balb/c mice; 0.2 mg/mL, 2 hr pre-dose) | Neutrophil numbers in BAL (% inhibition) (Balb/c mice; 0.2 mg/mL, 2 hr pre-dose) [%] | Neutrophil numbers in BAL (Balb/c mice; 0.2 mg/mL, 8 h pre-dose) | Neutrophil numbers in BAL (% inhibition) (Balb/c mice; 0.2 mg/mL, 8 h pre-dose) [%] | Neutrophil numbers in BAL (Balb/c mice; 1.0 mg/mL, 2 hr pre-dose) | Neutrophil numbers in BAL (% inhibition) (Balb/c mice; 1.0 mg/mL, 2 hr pre-dose) [%] | inhibition of neutrophil accumulation into the BALF (Balb/c mice; administered 2 hr prior to LPS challenge) | effects of treatment on neutrophil accumulation into the BALF (Balb/c mice; dosed 8 hr prior to the endotoxin challenge) | % inhibition of Influx (Balb/c mice; [2]) [%] | Neutrophil numbers in BAL 8 h pre-dose (Balb/c mice; [2]) | inhibitory effects versus neutrophil influx into the BALF (Balb/c mice; dosed 8 hr before the inflammatory stimulus)
19.1 | 67.2 | CNC(=O)Nc1cc(Oc2ccc(NC(=O)Nc3cc(C(C)(C)C)nn3-c3ccc(OC)cc3)c(Cl)c2Cl)ccn1 [Example 9, N-Methyl-N′-4-(4-(3-(3-tert-butyl-1-p-anisyl-1H-pyrazol-5-yl)ureido)-2,3-dichlorophen-1-yloxy)pyridin-2-ylurea] | 14.98 ± 2.25 × 10^5/mL | 11 | 8.75 ± 1.38 × 10^5/mL | 48 | 13.44 ± 2.03 × 10^5/mL | 20 | 5.80 ± 1.18 × 10^5/mL | 66 | dose-dependent inhibition | sustained and still detectable | – | – | –
21 | 134 | COc1ccc(-n2nc(C(C)(C)C)cc2NC(=O)Nc2ccc(Oc3ccnc(NC(=O)N4CCCC4)c3)c(Cl)c2Cl)cc1 [Example 76, N-(4-(4-(3-(3-(tert-butyl)-1-(4-methoxyphenyl)-1H-pyrazol-5-yl)ureido)-2,3-dichlorophenoxy)pyridin-2-yl)pyrrolidine-1-carboxamide] | – | – | – | – | – | – | – | – | – | – | 8 | 12.94 ± 2.41 × 10^5/mL | inhibitory effects
